The values below come from PMC8424644, “Thermodynamic Stability and Speciation of Ga(III) and Zr(IV) Complexes with High-Denticity Hydroxamate Chelators” (Inorganic Chemistry, 2021).

Series [1] can be described thus: pFe calculation (ligand sequestering ability). The format is physicochemical. The note with it: pH=7.4, cL=10 μM, metal 1 μM. From the text:
Despite a large variety of PET chelators synthesized and tested in order to provide strong coordination of Ga(III) and Zr(IV) in vivo, until now it is has been hard to avoid the release of these metal ions in the body. Here we report two new Ga(III) and Zr(IV) hydroxamate chelators, designed to achieve an efficient sequestering of these metal ions but also to understand how the cyclization and the introduction of an additional hydroxamate group influences the stability of Zr(IV) complexes. Therefore, it is important to evaluate and compare the Ga(III)- and Zr(IV)-sequestering abilities of […] and […] with those of other chelators. […] page 15: 100 100 [ZrL4]+ [ZrL3]+ [ZrL4H ] -1 80 [ZrL3H ] 80 2+ -1 [ZrHL4] […] Experimental section. Ligands' sequestering ability Table S3. pFe values with various synthetic and biological chelators a Ligand pFe Chelating groups and ligands geometry […] 24.3 3 hydroxamate groups in a cyclic arrangement […] 23.3 4 hydroxamate groups in a linear arrangement […] 26.9 3 hydroxamate groups in a cyclic arrangement […] 23.61 3 hydroxamate groups in a linear arrangement […] DFOE 27.73 3 hydroxamate groups in a cyclic arrangement […] protonation and stability constants given in original publications; the hydrolysis constants of Fe(III) ions were taken from the literature14 and are given in the experimental section 15 (also on this page, place not known: […]

The nature of series [2]: Fe(III)–Ga(III) metal–metal competition UV–vis titrations. The format is physicochemical. The note with it: Ga(III)-L + Fe(III) competition titration, pH 1.5; judged to carry a greater error, not retained. On the procedure:
Assuming the domination of the [GaHL1]^+ complex below pH 2, its stability was determined by metal–metal competition titrations, (i) Fe(III)-H3L1 + Ga(III) and (ii) Ga(III)-H3L1 + Fe(III), both performed at pH 1.5. This pH was chosen in order to prevent the hydrolysis of the free metal ions and decomposition of the ligand, which is common for hydroxamic acids at a very acidic pH.[37],[51] Upon addition of Ga(III) (up to 600 equiv) to the Fe(III)-H3L1 solution, the UV–vis band of [FeHL1]^+ (λmax = 470 nm, Figure 2a) slowly disappeared as a result of the [GaHL1]^+ complex formation. […]
For the Ga(III)-H4L2 system, [GaH2L2]^+ was assumed to be the most abundant species at pH 1.5, and its stability was again determined via (i) Fe(III)-H4L2 + Ga(III) and (ii) Ga(III)-H4L2 + Fe(III) titrations (Figure S8). […]
For the Ga(III)-H3L4 system, [GaHL4]^+ was assumed to be the major complex at pH 1.5, and its stability was determined via an Fe(III)-H3L4 + Ga(III) competition titration (Figure S9). […]
In order to calculate the stability constants of the investigated complexes, several competitive titrations were performed. […] After preparation, each solution was allowed to equilibrate for about 1 h, and then its UV–vis spectrum was recorded. The vials were kept in the dark, and the absorbance was measured again after 24, 48, and 120 h. […]

As for `O=C1CCCN(O)C(=O)CCCNC(=O)CCCN(O)C(=O)CCCNC(=O)CCCN(O)C(=O)CCCN1` [H3L1, 1,11,21-Trihydroxy-1,6,11,16,21,26-hexaazacyclotriacontane-2,7,12,17,22,27-hexaone], the pFe in series [1] is on record as 24.3. For the same compound, the “log β [GaHL]” value in series [2] is reported as 28.3(6).

On to `N[C@H]1CCCCNC(=O)CCCN(O)C(=O)CCCNC(=O)CCCN(O)C(=O)CCCNC(=O)CCCN(O)C(=O)CCCNC(=O)CCCN(O)C(=O)CCCNC1=O` [H4L2, (S)-43-Amino-6,16,26,36-tetrahydroxy-1,6,11,16,21,26,31,36,41-nonaazacycloheptatetracontane-2,7,12,17,22,27,32,37,42-nonaone], for which the pFe in series [1] was 23.3. Also, the “log β [GaH2L]” value in series [2] is recorded as 39.06(4).
